We go through 21 compounds from ChEMBL document CHEMBL4673358 (Bioorg Med Chem Lett, 2021).

Active and inactive are the calls of the source. The calls are words filed in the database; no cut-off is given here. Where only a bound is given, the exact number is not on record here.

For data set [1], the target named is T1, Indoleamine 2,3-dioxygenase 1 (Homo sapiens, UniProt P14902). In words: Inhibition of IDO1 in human SKOV3 cells. The data set is classed as cell-based, SK-OV-3.
Target sequence in this assay (P14902 whole entry): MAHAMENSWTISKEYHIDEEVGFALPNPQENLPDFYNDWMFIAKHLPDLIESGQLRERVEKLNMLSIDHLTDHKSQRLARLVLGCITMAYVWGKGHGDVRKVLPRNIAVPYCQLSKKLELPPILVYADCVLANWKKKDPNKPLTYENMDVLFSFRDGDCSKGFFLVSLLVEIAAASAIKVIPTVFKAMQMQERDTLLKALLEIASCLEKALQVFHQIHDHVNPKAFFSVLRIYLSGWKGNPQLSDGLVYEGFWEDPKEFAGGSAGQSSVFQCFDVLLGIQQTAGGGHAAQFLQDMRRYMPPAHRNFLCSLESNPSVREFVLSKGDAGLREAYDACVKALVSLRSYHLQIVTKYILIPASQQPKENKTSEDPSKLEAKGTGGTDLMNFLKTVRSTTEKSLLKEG
Data set [2] can be described thus: Metabolic stability in human liver microsomes assessed as intrinsic clearance. The class given is ADME, Microsome. The settings on record: read-out: CLH. Background: Liver microsomes are a subcellular fraction often used to study metabolism.
Data set [3] addresses Tryptophan 2,3-dioxygenase (Homo sapiens, UniProt P48775). In words: Inhibition of TDO in HEK cells. The class given is cell-based.
Data set [4] in a line: Metabolic stability in mouse liver microsomes assessed as intrinsic clearance. The data set is classed as ADME, Microsome. The conditions noted are these: read-out: CLH.
Data set [5] has as its target T1, Indoleamine 2,3-dioxygenase 1. In words: Inhibition of IDO1 in human whole blood. The data set is classed as tissue-based.
Target sequence in this assay (P14902 whole entry): as above
Data set [6] can be described thus: Metabolic stability in mouse hepatocytes assessed as half life. The data set is classed as ADME, cell-based, Hepatocyte.
Data set [7] has as its target Cytochrome P450 3A4 (Homo sapiens, UniProt P08684). In words: Inhibition of CYP3A4 (unknown origin). The class given is ADME.
Data set [8] is described as follows: AUC(0 to 72 hrs) in rat at 10 mg/kg, po. The data set is classed as ADME, organism-based. Details: time < 72 hr, route oral, dose 10 mg/kg. The conditions noted are these: in vivo.
A short description of data set [9]: Metabolic stability in mouse hepatocytes assessed as intrinsic clearance measured per million cells. The class given is ADME, cell-based, Hepatocyte. The settings on record: read-out: CLH.
Data set [10] addresses T1, Indoleamine 2,3-dioxygenase 1. In words: Binding affinity to IDO1 (unknown origin) assessed as change in melting temperature at 5 uM by thermal shift assay.
Target sequence in this assay (P14902 whole entry, looked up): as the sequence (P14902 whole entry) above
A short description of data set [11]: Cmax in rat at 10 mg/kg, po. The conditions noted are these: in vivo. Also noted: route oral, dose 10 mg/kg. The class given is ADME, organism-based.
In data set [12] the target is Indoleamine 2,3-dioxygenase 1 (Mus musculus, UniProt P28776). In words: Inhibition of mouse IDO1 expressed in HEK cells. The class given is cell-based.
Chain of Indoleamine 2,3-dioxygenase 1 (Mus musculus, UniProt P28776) (P28776 whole entry): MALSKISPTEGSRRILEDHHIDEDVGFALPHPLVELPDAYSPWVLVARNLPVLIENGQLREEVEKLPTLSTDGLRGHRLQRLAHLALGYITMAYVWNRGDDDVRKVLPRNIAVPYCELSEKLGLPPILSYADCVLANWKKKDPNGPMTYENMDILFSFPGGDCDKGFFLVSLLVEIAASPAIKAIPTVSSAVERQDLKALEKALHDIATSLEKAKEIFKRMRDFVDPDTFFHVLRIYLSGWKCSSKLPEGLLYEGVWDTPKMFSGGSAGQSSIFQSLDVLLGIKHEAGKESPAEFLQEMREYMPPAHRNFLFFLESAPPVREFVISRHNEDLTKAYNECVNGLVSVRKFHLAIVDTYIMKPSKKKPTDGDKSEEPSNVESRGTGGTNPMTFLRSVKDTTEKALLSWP
Data set [13] is described as follows: Half life in rat at 10 mg/kg, po. The class given is ADME, organism-based. The conditions noted are these: in vivo.
Data set [14] addresses T2, hERG (KCNH2) (Homo sapiens, UniProt Q12809). In words: Inhibition of human ERG at 10 uM relative to control.
A short description of data set [15]: Plasma protein binding in mouse. The class given is ADME, cell-free. The settings on record: read-out: PPB (converted).
The target of data set [16] is Indoleamine 2,3-dioxygenase 1 (Mus musculus) (UniProt P28776). In words: In vivo inhibition of IDO1 in mouse assessed as reduction in LPS-induced kynurenine level at 30 mg/kg, po administered as single dose measured after 36 hrs relative to control. The data set is classed as functional, organism-based.
Chain of Indoleamine 2,3-dioxygenase 1 (Mus musculus) (P28776 whole entry, looked up): as the sequence (P28776 whole entry) above
Data set [17] has the same target. In words: In vivo inhibition of IDO1 in mouse assessed as reduction in kynurenine level. The data set is classed as functional.
Data set [18] in a line: Metabolic stability in rat hepatocytes assessed as intrinsic clearance measured per million cells. The data set is classed as ADME, cell-based, Hepatocyte. The settings on record: read-out: CLH.
A short description of data set [19]: Cmax in mouse at 10 mg/kg, po. Details: route oral, dose 10 mg/kg. The data set is classed as ADME, organism-based. The settings on record: in vivo.
Data set [20] in a line: Metabolic stability in human hepatocytes assessed as half life. The class given is ADME, cell-based, Hepatocyte.
The nature of data set [21]: Metabolic stability in rat hepatocytes assessed as half life. The class given is ADME, cell-based, Hepatocyte.
Data set [22] in a line: Half life in mouse at 10 mg/kg, po. The data set is classed as ADME, organism-based. The conditions noted are these: in vivo.
A short description of data set [23]: Plasma protein binding in human. The class given is ADME, cell-free. The conditions noted are these: read-out: PPB.
A short description of data set [24]: AUC(0 to 72 hrs) in mouse at 10 mg/kg, po. The class given is ADME, organism-based. Details: time < 72 hr, route oral, dose 10 mg/kg. The settings on record: in vivo.
Data set [25] can be described thus: Metabolic stability in human hepatocytes assessed as intrinsic clearance measured per million cells. The class given is ADME, cell-based, Hepatocyte. The conditions noted are these: read-out: CLH.
In data set [26] the target is T2, hERG (KCNH2). In words: Inhibition of human ERG assessed as reduction in channel tail current at 10 uM by patch clamp assay relative to control. On the technique in general: Patch clamp records ionic current or voltage across a cell membrane.
Data set [27] in a line: AUC(0 to 24 hrs) in mouse at 10 mg/kg, po. The class given is ADME, organism-based. Also noted: time < 24 hr, route oral, dose 10 mg/kg. The conditions noted are these: in vivo.
Data set [28] has as its target Cytochrome P450 2C9 (Homo sapiens, UniProt P11712). In words: Inhibition of CYP2C9 (unknown origin). The class given is ADME.

T2 sequence (Q12809 whole entry): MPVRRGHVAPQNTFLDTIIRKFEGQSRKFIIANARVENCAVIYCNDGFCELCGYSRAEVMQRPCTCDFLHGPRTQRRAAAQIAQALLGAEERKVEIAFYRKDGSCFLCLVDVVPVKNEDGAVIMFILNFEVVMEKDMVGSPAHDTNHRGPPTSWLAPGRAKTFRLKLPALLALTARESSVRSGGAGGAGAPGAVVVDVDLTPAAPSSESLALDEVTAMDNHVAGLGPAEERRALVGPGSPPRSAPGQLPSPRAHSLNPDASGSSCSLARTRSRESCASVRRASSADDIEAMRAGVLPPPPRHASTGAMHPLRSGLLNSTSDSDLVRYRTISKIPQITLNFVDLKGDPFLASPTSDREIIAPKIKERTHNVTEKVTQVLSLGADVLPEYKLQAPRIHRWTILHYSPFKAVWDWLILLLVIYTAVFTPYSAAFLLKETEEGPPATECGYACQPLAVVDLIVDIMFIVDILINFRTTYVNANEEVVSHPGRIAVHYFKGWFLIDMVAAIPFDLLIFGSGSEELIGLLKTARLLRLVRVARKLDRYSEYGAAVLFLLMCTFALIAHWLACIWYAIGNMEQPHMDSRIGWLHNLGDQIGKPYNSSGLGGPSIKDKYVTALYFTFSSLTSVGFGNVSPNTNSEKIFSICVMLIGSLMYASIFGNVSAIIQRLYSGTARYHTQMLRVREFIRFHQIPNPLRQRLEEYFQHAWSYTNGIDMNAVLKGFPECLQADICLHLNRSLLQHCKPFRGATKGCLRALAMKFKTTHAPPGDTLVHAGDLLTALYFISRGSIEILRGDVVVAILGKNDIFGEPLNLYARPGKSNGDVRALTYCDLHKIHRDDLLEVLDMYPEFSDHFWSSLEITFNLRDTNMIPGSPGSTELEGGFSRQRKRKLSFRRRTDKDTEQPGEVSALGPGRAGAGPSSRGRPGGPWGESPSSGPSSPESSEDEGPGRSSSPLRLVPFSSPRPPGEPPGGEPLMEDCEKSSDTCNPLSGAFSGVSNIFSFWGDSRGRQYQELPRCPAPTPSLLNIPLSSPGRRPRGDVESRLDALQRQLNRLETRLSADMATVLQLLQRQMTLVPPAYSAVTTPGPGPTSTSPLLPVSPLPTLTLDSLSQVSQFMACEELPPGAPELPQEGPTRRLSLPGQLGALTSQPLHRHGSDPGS
Chain of Tryptophan 2,3-dioxygenase (P48775 whole entry): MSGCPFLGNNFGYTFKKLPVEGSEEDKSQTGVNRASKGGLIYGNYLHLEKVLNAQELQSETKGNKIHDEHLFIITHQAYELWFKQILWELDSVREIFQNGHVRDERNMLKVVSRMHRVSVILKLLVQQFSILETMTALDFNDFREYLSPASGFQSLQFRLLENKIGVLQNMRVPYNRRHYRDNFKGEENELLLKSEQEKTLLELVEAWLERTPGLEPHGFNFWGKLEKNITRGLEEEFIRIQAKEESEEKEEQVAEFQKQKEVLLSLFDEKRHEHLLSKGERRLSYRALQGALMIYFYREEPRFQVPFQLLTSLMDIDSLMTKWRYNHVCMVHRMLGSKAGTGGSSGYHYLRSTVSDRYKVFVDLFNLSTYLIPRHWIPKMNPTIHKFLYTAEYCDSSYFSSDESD
Chain of Cytochrome P450 2C9 (P11712 whole entry): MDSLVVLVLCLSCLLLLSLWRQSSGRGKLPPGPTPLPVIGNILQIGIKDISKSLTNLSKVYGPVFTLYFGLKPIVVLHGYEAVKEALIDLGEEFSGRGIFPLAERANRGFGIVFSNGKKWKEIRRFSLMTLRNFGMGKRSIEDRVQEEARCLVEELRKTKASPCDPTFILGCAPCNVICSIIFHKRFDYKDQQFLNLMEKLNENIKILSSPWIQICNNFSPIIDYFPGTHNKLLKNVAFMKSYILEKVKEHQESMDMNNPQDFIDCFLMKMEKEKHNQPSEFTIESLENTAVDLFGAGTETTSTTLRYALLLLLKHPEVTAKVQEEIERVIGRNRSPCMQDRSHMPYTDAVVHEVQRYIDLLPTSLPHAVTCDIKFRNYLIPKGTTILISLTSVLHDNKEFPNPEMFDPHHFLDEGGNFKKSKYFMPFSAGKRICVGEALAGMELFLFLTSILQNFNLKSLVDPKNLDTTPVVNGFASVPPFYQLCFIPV
Chain of Cytochrome P450 3A4 (P08684 whole entry): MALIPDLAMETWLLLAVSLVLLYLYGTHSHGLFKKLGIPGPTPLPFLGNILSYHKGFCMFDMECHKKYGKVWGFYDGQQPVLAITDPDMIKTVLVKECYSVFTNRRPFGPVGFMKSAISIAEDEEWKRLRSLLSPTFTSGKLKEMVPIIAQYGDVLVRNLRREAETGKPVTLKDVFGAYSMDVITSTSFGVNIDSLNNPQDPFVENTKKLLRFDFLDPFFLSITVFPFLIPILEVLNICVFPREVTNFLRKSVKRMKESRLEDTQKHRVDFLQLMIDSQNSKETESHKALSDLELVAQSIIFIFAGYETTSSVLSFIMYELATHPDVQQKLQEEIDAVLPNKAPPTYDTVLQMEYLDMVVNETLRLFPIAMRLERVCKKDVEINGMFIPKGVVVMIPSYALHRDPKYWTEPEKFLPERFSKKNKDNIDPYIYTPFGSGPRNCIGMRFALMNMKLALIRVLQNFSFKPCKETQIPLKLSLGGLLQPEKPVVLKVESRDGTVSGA

Consider `C[C@H](C(=O)Nc1ccc(Cl)cc1)[C@H]1CC[C@]2(CC1)COc1ncc(C(F)(F)F)cc12`, for which the 50% inhibitory concentration (IC50) (commonly the concentration that gives 50% inhibition) in data set [1] was 7.9 nM; in data set [3], 18400 nM. Moreover, the values for the microsomal CLint in data set [2] and in data set [4] were 3 µL/min/mg and 19 µL/min/mg, respectively.
With `O=C(CN1CCC2(CC1)COc1cc(C(F)(F)F)ccc12)Nc1ccc(Cl)cc1`, the figures for the half-maximal inhibitory concentration (IC50) in data set [1] and in data set [3] were 260 nM and 25700 nM, respectively.
For `CC(C(=O)Nc1ccc(Cl)cc1)N1CCC2(CCc3ccccc32)CC1` (racemic), the IC50 was found to be 39 nM in [1] and 39000 nM in [3]. Also, the values for the microsomal CLint in data set [2] and in [4] were 326 µL/min/mg and 668 µL/min/mg, respectively.
`O=C(CN1CCC2(CCc3ccccc32)CC1)Nc1ccc(Cl)cc1`: the IC50 was found to be 670 nM in [1] and 42800 nM in [3].
On the same counts, the results for `O=C(Nc1ccc(Cl)cc1)C(CCO)N1CCC2(CC1)COc1cc(C(F)(F)F)ccc12` (stereo not drawn) are 86 nM and 9500 nM.
As for `O=C(Nc1ccc(Cl)cc1)C(=O)N1CCC2(CC1)COc1cc(C(F)(F)F)ccc12`, the concentration for half-maximal inhibition (IC50) in data set [1] was found to be 32 nM; in [5], 1700 nM.
For the compound `O=C(Nc1ccc(Cl)cc1)C(CC1CC1)N1CCC2(CC1)COc1cc(C(F)(F)F)ccc12` (stereo not drawn), the results for the IC50 in data set [1], in data set [3] and in data set [5] were 4.4 nM, 15900 nM and 300 nM, respectively. Also, the microsomal CLint is 13 µL/min/mg in [2] and 14 µL/min/mg in data set [4].
Regarding `O=C(Nc1ccc(Cl)cc1)C(=O)N1CCC(c2ccnc3ccc(F)cc23)CC1`, the IC50 amounted to 15 nM in [1] and 1600 nM in [5].
Turning to `C[C@H](C(=O)Nc1ccc(Cl)cc1)[C@H]1CC[C@]2(CC1)COc1cc(C(F)(F)F)ccc12`, the half-life – broadly, how long it takes for the measured level to halve – in data set [6] was 6.65 h; in [13], 49 h; in [20], 2.92 h; in data set [21], 2.08 h; in data set [22], 115 h. In addition, the IC50 in [7] is 3100 nM; in data set [1], 3.9 nM; in [12] it was 7.8 nM; in data set [3] it was 7300 nM; in data set [5], 52 nM. The AUC(0-t) (in general, the area under the concentration-time curve up to a stated or last time point) at 72 h in data set [8] was 18.2 µM·h; in data set [24] it was 105 µM·h. The hepatocyte CLint was 1.7 µL/min/1e6 cells in data set [9], 5.6 µL/min/1e6 cells in data set [18] and 4 µL/min/1e6 cells in data set [25]. In data set [10], the thermal shift (ΔTm) (commonly the change in melting temperature against a reference sample) turned out to be 17.8 °C. In addition, the microsomal CLint in data set [2] and in data set [4] was below 1 µL/min/mg in each case. Further, the highest concentration (Cmax) (commonly the maximum level reached in the sampled fluid or tissue) in data set [11] worked out at 580 nM; in data set [19], 2880 nM. In addition, the inhibition (commonly the drop in the measured response relative to a control, in per cent) at 10 µM came to 67% in [14] and 44% in data set [26]. Besides, the fraction unbound in [15] was 0.005; in data set [23] it was 0.001. Also, the inhibition result in data set [16] was “Active”. Further, the inhibition entry in [17] was “inactive”.
With `CC(C(=O)Nc1ccc(Cl)cc1)N1CCC2(CC1)COc1cc(C(F)(F)F)ccc12` (racemic), the figures for the half-maximal inhibitory concentration (IC50) in [1], in data set [3] and in data set [5] were 22 nM, 35600 nM and 1320 nM, respectively. Further, the microsomal CLint worked out at 11 µL/min/mg in data set [2] and 56 µL/min/mg in [4].
For `CC[C@H](C(=O)Nc1ccc(Cl)cc1)N1CCC2(CC1)COc1cc(C(F)(F)F)ccc12` (stereo in doubt), the IC50 is 109 nM in data set [1] and 15500 nM in data set [3]. Also, the values for the microsomal CLint in data set [2] and in data set [4] were 17 µL/min/mg and 48 µL/min/mg, respectively.
The like results for `C[C@@H](C(=O)Nc1ccc(Cl)cc1)[C@H]1CC[C@@]2(CC1)COc1cc(C(F)(F)F)ccc12` were, in that order, 6.6 nM, 10300 nM, 43 µL/min/mg and 92 µL/min/mg.
Regarding `C[C@@H](C(=O)Nc1ccc(Cl)cc1)[C@H]1CC[C@@H](c2ccnc3ccc(F)cc32)CC1`, the inhibition entry in data set [16] is “Active”. This compound had a Cmax in [19] of 2000 nM. Further, the half-life was 2.55 h in data set [20] and 2.5 h in data set [22]. Besides, the hepatocyte CLint in [25] was determined as 4.5 µL/min/1e6 cells. In data set [27], this compound returned an AUC(0-t) at 24 h of 9.3 µM·h.
As for `C[C@H](C(=O)Nc1ccc(Cl)cc1)[C@H]1CC[C@@]2(CC1)COc1cc(C(F)(F)F)ccc12`, the IC50 turned out to be 5.1 nM in data set [1], 7800 nM in data set [3] and 51 nM in [5]. Further, the values for the microsomal CLint in data set [2] and in data set [4] were 67 µL/min/mg and 193 µL/min/mg, respectively.
Consider `CC(C(=O)Nc1ccc(Cl)cc1)C1CCC2(CC1)c1ccc(C(F)(F)F)cc1CN2C` (stereo not drawn), for which the IC50 in [1] was 8.3 nM; in data set [3], 7100 nM. For the same compound, the microsomal CLint in [2] worked out at 1.4 µL/min/mg; in [4], 9.5 µL/min/mg.
On to `CC[C@H](C(=O)Nc1ccc(Cl)cn1)[C@H]1CC[C@]2(CC1)COc1cc(C(F)(F)F)ccc12`, for which the IC50 in data set [1] is 7 nM; in [3], 26400 nM; in data set [5], 320 nM. Moreover, the microsomal CLint worked out at 5.9 µL/min/mg in data set [2] and 30 µL/min/mg in data set [4].
As for `CC[C@@H](C(=O)Nc1ccc(Cl)cc1)N1CCC2(CC1)COc1cc(C(F)(F)F)ccc12` (stereo in doubt), the 50% inhibitory concentration (IC50) in data set [1] was 12 nM; in data set [12] it was 38 nM; in data set [3], 11400 nM; in [5], 360 nM; in data set [28] it was 5000 nM. In addition, the ΔTm in [10] came to 15.2 °C. For the same compound, the values for the microsomal CLint in data set [2] and in [4] were 22 µL/min/mg and 53 µL/min/mg, respectively. In data set [14], this compound yielded an inhibition at 10 µM of 85%.
`C[C@H](C(=O)Nc1ccc(Cl)cc1)[C@H]1CC[C@]2(CC1)COc1nc(C(F)(F)F)ccc12`: the concentration for half-maximal inhibition (IC50) in data set [1] came to 5.4 nM; in [3], 7100 nM. Also, the microsomal CLint is 1.6 µL/min/mg in [2] and 3.5 µL/min/mg in data set [4].
Take `CCC(C(=O)Nc1ccc(Cl)cc1)N1CCC2(CCOc3cc(C(F)(F)F)ccc32)CC1` (stereo not drawn): the values for the IC50 in data set [1], in data set [3] and in data set [5] were 12 nM, 11800 nM and 360 nM, respectively. The microsomal CLint in data set [2] was determined as 22 µL/min/mg; in [4] it was 39 µL/min/mg.
With `CC(C)(C(=O)Nc1ccc(Cl)cc1)N1CCC2(CC1)COc1cc(C(F)(F)F)ccc12`, the figures for the IC50 in [1] and in [3] were 11 nM and 47900 nM, respectively. Further, the microsomal CLint in data set [2] stood at 34 µL/min/mg; in data set [4], 117 µL/min/mg.
As for `C[C@@H](C(=O)Nc1ccc(Cl)cc1)[C@H]1CC[C@]2(CC1)COc1cc(C(F)(F)F)ccc12`, the half-inhibitory concentration (IC50) worked out at 69 nM in data set [1] and 10500 nM in [3]. Besides, the microsomal CLint stood at 3.7 µL/min/mg in data set [2] and 4.5 µL/min/mg in data set [4].
